Experimental data reported in paper PMC5000474, “Discovery of a Carbazole-Derived Lead Drug for Human African Trypanosomiasis” (Scientific Reports, 2016).
Read-outs that look alike come from different tables or passages of the source.

Legend:
bloodstream T. brucei = assay: Trypanosome proliferation inhibition assay (GI50); type: cell-based, Trypanosoma brucei brucei; conditions: for Selectivity Index HL GI50/Tbb GI50: ratio between HeLa and T. brucei GI50
Protocol: T. brucei (brucei or rhodesiense) were seeded at 4 × 10^3 cells/mL in 24-well plates (0.5 or 1 mL of culture per well). […] Then, at least five drug concentrations[26] covering this range was used for subsequent assays. Each concentration was tested in duplicate. […] Cells were counted only if they were motile. […] Final mean GI50 values were calculated based on two independent experiments, each with at least five data points performed in duplicate. T. brucei were seeded at 4 × 10^3 cells/mL and dispensed into wells of a 384-well black plate (Greiner; Frickenhausen, Germany). Wells in two columns per plate were filled with 50 μL of HMI-9 medium using a Multidrop Combi (Thermo Scientific; Waltham, MA) to serve as a background control. Fifty microliters of trypanosome suspension was added to separate columns using a Multidrop Combi. Lastly, an additional 50 μL of cell resuspension was added to only the top row of wells that contained cells (row A, labeled by Greiner), using an Xplorer multichannel pipette (Eppendorf; Hamburg-Eppendorf, Germany) bringing final volumes of cell-containing wells in the top row to 100 μL. […] St. Louis, MO). A microliter of DMSO (25%) or diluted drug was added to wells containing cells of the top row using an Xplorer multichannel pipette. Each concentration was tested in duplicate. Cells and DMSO/drug were mixed and serially diluted 1:2 down the rows of the plate. […] Cells were lysed by addition of 15 μL of SYBR Green I (Invitrogen; Carlsbad, CA) in lysis solution[30] (5X SYBR Green I, 30 mM Tris pH 7.5, 7.5 mM EDTA, 0.012% saponin and 0.12% Triton X-100) to each well. […] Data collected was exported to Excel from Ascent Software (Thermo Scientific). Base-line corrected non-linear regression graphs were generated and GI50 values determined using GraphPad Prism (GraphPad Software; La Jolla, CA). Final mean GI50 values were calculated based on four separate biological replicates.

T. brucei [1] = assay: Thirty-hour treatment of trypanosomes: cell density, kinetoplast/nucleus copy number, DNA content; type: cell-based, Trypanosoma brucei brucei; conditions: 200 nM
Protocol: At stated times trypanosome density was determined using a Z2 Coulter Counter (Beckman). […] At the same time-points a 5 mL aliquot (5 × 10^5–1 × 10^7 cells total) was collected and analyzed by flow cytometry as described below. All data reported were obtained from three independent experiments.
T. brucei (between 5 × 10^5 cells to 1 × 10^7 cells) in 5 mL of culture medium were centrifuged (3 min, 3000 × g at room temperature) to pellet cells and washed once with 1 mL of PBS containing 10 mM glucose. Cells were fixed in 1 mL of 70% methanol supplemented by PBS at 4 °C for up to two weeks, centrifuged (3 min, 2000 × g at room temperature), and resuspended at 5 × 10^5 cells/mL in 1X PBS. RNase A and propidium iodide (PI) were added to each sample to final concentrations of 500 μg/mL and 7.5 μM, respectively, and the suspension was protected from light during incubation for 1 h at 37 °C[35]. Samples were placed on ice for 15 min and data was immediately collected on a CyAn ADP Analyzer (Beckman Coulter; Hialeah, FL). During analysis with FlowJo software (FlowJo, LLC; Ashland, OR), trypanosomes were gated from background debris by plotting “events” as forward scatter vs. side scatter (both on the logarithmic scale). Single trypanosomes were gated for cell cycle analysis from cells stuck together (“doublets”) by plotting trypanosome events as PI fluorescence vs. pulse width. Distribution of trypanosomes into groups containing different amounts of chromosomal DNA was performed using Watson-Pragmatic algorithm in FlowJo. DNA distribution values from independent experiments were averaged with error bars generated and graphed in Excel. To compare effects of drug treatment on DNA content of experimental and vehicle control groups, Student’s t-test was performed in Excel to generate p-values.

[2] = ref Cleveland BioLabs, unpublished data; cited from earlier work
HeLa cells = assay: HeLa cell proliferation inhibition assay (GI50); type: cell-based; conditions: Homo sapiens; HeLa 1 × 10^5 cells/mL, 24 h with compound; read-out: Growth inhibition (GI50) ± SD HeLa
Protocol: HeLa cells were seeded to 1 × 10^5 cells/mL in 24-well plates (1 mL of culture per well) and incubated drug-free for 24 h at 37 °C, 5% CO2. DMSO or stock inhibitor concentration (5 μL) was added to obtain the specified final concentrations. Cells were incubated for 24 h[28][29] at 37 °C, 5% CO2. Next, cells were trypsinized and cell density was determined with a Neubauer Bright-line hemocytometer as described[9]. GI50 for each compound was calculated by plotting data for the cell counts in Excel as described for T. brucei above. Data were obtained from two independent experiments, four separate biological replicates.

T. brucei [3] = assay: Mouse model of HAT: oral treatment of T. brucei-infected mice; type: in vivo, Trypanosoma brucei brucei; conditions: for survival of infected mice compared to control untreated animals: administered orally; for reduction of parasitemia: day six, after full oral dose days two to five (2: 20 mg/kg, 3: 25 mg/kg); for increase in average survival: infected mice treated orally, versus vehicle (5 days on average); for cure of T. brucei infection in mice: oral administration
Protocol: Cultured T. brucei were pelleted and resuspended in cold phosphate buffered saline (PBS) containing 1% glucose at 1 × 10^5 cells/mL. Female Swiss-Webster mice (8–10 weeks old, 20–25 g, n = 4 per group) (Harlan; Indianapolis, IN) were infected intraperitoneally (i.p.) with 10^4 bloodstream trypanosomes in 100 μL of PBS using 26G needles. To avoid damage to T. brucei cells, mechanical stress during administration was minimized by avoiding repeated pulling and pushing movements of cell resuspension through the syringe needle. Starting 48 h post-infection, and every 1–8 days thereafter, parasitemia was monitored by collecting 3 μL of blood from the tail vein of mice. Blood samples were supplemented with 21 μL of RBC Lysis Solution (Qiagen; Valencia, CA) and incubated at room temperature for 15–45 min. prior to observing for parasites using a Neubauer Bright-line hemocytometer. Mice with parasitemia greater than 2 × 10^8 trypanosomes/mL were euthanized. […] To compare animal survival in treatment and vehicle control groups, Student’s t-test was performed in Excel to generate p-values. All animal experiments were conducted with the approval of the Institutional Animal Care and Use Committee (IACUC) at the University of Georgia. All experimental protocols involving animals were carried out in accordance with the approved guidelines of the IACUC at the University of Georgia.
Formulated compounds or vehicle control (0.2% HPMC) were administered by oral gavage starting 24 h after mouse infection with T. brucei. Animals were weighed before each compound administration, and dose volume was adjusted based on body weight (10 mL/kg) to deliver accurate doses of test compounds. The treatment was ceased for animals when normalized body weight (NBW) loss exceeded 20%, and resumed after NBW recovery above 90%. […] 1: 30 mg/kg or 40 mg/kg, treatment regimen of “4 days on/2 days off” for a total of 14 doses; 2: 20 mg/kg (days 2–5), 10 mg/kg (day 7), 5 mg/kg (days 8–9), no drug (day 6, days 10–13); 3: 25 mg/kg (days 2–5), 12.5 mg/kg (day 7), 6.25 mg/kg (days 8–10), no drug (day 6, days 11–13). Scheduled euthanasia by CO2 overdose followed by incision to form a bilateral pneumothorax was conducted on mice considered cured 30 days after the end of experimental treatment (see previous section). Mice with parasitemia greater than 2 × 10^8 trypanosomes/mL or NBW losses ≥30% were subjected to unscheduled euthanasia.

[4] = Normalized body weight of treated T. brucei-infected mice; type: in vivo; conditions: oral 2 (20 mg/kg) or 3 (25 mg/kg)
Protocol: Formulated compounds or vehicle control (0.2% HPMC) were administered by oral gavage starting 24 h after mouse infection with T. brucei[33][34]. Animals were weighed before each compound administration, and dose volume was adjusted based on body weight (10 mL/kg) to deliver accurate doses of test compounds. The treatment was ceased for animals when normalized body weight (NBW) loss exceeded 20%, and resumed after NBW recovery above 90%. […] 1: 30 mg/kg or 40 mg/kg, treatment regimen of “4 days on/2 days off” for a total of 14 doses; 2: 20 mg/kg (days 2–5), 10 mg/kg (day 7), 5 mg/kg (days 8–9), no drug (day 6, days 10–13); 3: 25 mg/kg (days 2–5), 12.5 mg/kg (day 7), 6.25 mg/kg (days 8–10), no drug (day 6, days 11–13). Scheduled euthanasia by CO2 overdose followed by incision to form a bilateral pneumothorax was conducted on mice considered cured 30 days after the end of experimental treatment (see previous section). Mice with parasitemia greater than 2 × 10^8 trypanosomes/mL or NBW losses ≥30% were subjected to unscheduled euthanasia.

T. b. rhodesiense = assay: Trypanosome proliferation inhibition assay (GI50), T. b. rhodesiense; type: cell-based; conditions: Trypanosoma brucei, 4 × 10^3 cells/mL, 24-well plates, 48 h, read-out: Growth inhibition (GI50) ± SD T. b. rhodesiense
Protocol: T. brucei (brucei or rhodesiense) were seeded at 4 × 10^3 cells/mL in 24-well plates (0.5 or 1 mL of culture per well). […] Compounds were initially tested at 10 nM, 100 nM or 1 μM, to define a range where cell density responded to drug concentrations. Then, at least five drug concentrations[26] covering this range was used for subsequent assays. Each concentration was tested in duplicate. Cell density was determined with a Neubauer Bright-Line hemocytometer (Sigma) after 48 h. Cells were counted only if they were motile. […] Final mean GI50 values were calculated based on two independent experiments, each with at least five data points performed in duplicate.

[5] = Trypanosoma brucei, 48 h, T. brucei 4 × 10^3 cells/mL, 48 h, Fig. 1, read-out: GI50
[6] = Trypanosoma brucei, against T. brucei, read-out: GI50
[7] = Trypanosoma brucei, 48 h, 4 × 10^3 cells/mL, 24-well plates, 48 h, Table 1, read-out: Growth inhibition (GI50) ± SD T. b. brucei

CC(=O)c1cc2c3cc(C(C)=O)c(O)cc3n(CCCN(C)C)c2cc1O [CBL0174]
GI50 (bloodstream T. brucei; [5]): 25 ± 1.9 nM

CC[n+]1c(-c2ccccc2)c2cc(N)ccc2c2ccc(N)cc21 [ethidium bromide]
formation of dyskinetoplastic trypanosomes (0K1N) (T. brucei [1]; 30 h time-course): produced dyskinetoplastic trypanosomes
effect on nuclear DNA content compared to vehicle (T. brucei [1]; 30 h treatment, flow cytometry): little or no effect
increase in cell density during 30 h treatment (T. brucei [1]; T. brucei seeded 1 × 10^5 cells/mL): 2.5 fold

CC(=O)c1ccc2c(c1)c1c3c(ccc1n2CCNC(C)C)C(=O)CC3 [CBL0252]
GI50 (bloodstream T. brucei; [5]): 8.5 ± 0.22 nM

CC(=O)c1ccc2c(c1)c1c3c(ccc1n2CC[C@@H]1CCCN1C)C(=O)CC3 [CBL0211]
GI50 (bloodstream T. brucei; [5]): 2.3 ± 0.58 nM

CON=C1CCc2c1ccc1c2c2c3c(ccc2n1CCN1CCOCC1)C(=NOC)CC3 [CBL0209]
GI50 (bloodstream T. brucei; [5]): 460 ± 18 nM

CCN(CC)CCn1c2ccc(C#N)cc2c2cc(C#N)ccc21 [CBL0018]
GI50 (bloodstream T. brucei; [5]): 250 ± 20 nM

CCN(CC)CCn1c2ccc(C3=NCCN3)cc2c2cc(C3=NCCN3)ccc21 [CBL0030]
GI50 (bloodstream T. brucei; [5]): 1500 ± 210 nM

CCN(CC)CCn1c2ccc(C(C)=O)cc2c2cc(C(C)=O)ccc21 [CBL0014]
GI50 (bloodstream T. brucei; [5]): 76 ± 20 nM

CN(C)CCCn1c2ccccc2c2cnccc21 [CBL0144]
GI50 (bloodstream T. brucei; [6]): > 10000 nM

CCN(CC)CCCC(C)n1c2ccc3c(c2c2c4c(ccc21)C(=O)CC4)CCC3=O (stereo not shown) [CBL0100Q]
GI50 (bloodstream T. brucei; [5]): 240 ± 2 nM

CCCNCCCn1c2ccc(C(C)=O)cc2c2c3c(ccc21)C(=O)CC3 [CBL0175]
GI50 (bloodstream T. brucei; [5]): 9.5 ± 1.4 nM

CCN(CC)CCn1c2ccccc2c2cnccc21 [CBL0139]
GI50 (bloodstream T. brucei; [6]): > 10000 nM

CCNCCCn1c2ccc3c(c2c2c4c(ccc21)C(=O)CC4)CCC3=O [CBL0198]
GI50 (bloodstream T. brucei; [5]): 2.8 ± 0.49 nM

CC(=O)c1cc2c3c4c(ccc3n(CCCN(C)C)c2cc1O)C(=O)N(C)C4 [CBL0167]
GI50 (bloodstream T. brucei; T. brucei 4 × 10^3 cells/mL, 48 h, Fig. 1, read-out: GI50): 21 ± 2.9 nM
GI50 (bloodstream T. brucei; [5]): < 25 nM

CC(=O)c1cc2c3cc(C(C)=O)c(O)cc3n(CCNC(C)C)c2cc1O [CBL0187]
GI50 (bloodstream T. brucei; [5]): 33 ± 2.1 nM

CC(=O)c1ccc2c(c1)c1cc(C(C)=O)ccc1n2CCC1CCCN1C (stereo not shown) [CBL0053]
GI50 (bloodstream T. brucei; [5]): 58 ± 5.3 nM

CC(=O)c1ccc2c(c1)c1cc(C(C)=O)ccc1n2CCCNC(C)C [CBL0127]
GI50 (bloodstream T. brucei; [5]): 170 ± 3 nM

CCN(CC)CCn1c2ccc3c(c2c2c4c(ccc21)C(=O)CC4)CCC3=O [CBL0100]
GI50 (bloodstream T. brucei; [5]): 0.97 ± 0.08 nM

CC(=O)c1ccc2c(c1)c1cc(C(C)=O)ccc1n2CCCN(C)C [CBL0031]
GI50 (bloodstream T. brucei; [5]): 260 ± 0.64 nM

CC(=O)c1cc2c3c4c(ccc3n(CCCN(C)C)c2cc1O)C(=O)CC4 [Compound 2]
oral bioavailability [2]: orally bioavailable
GI50 (HeLa cells): 580 ± 100 nM
survival of infected mice compared to control untreated animals (T. brucei [3]): increased survival
reduction of parasitemia (T. brucei [3]): 100 fold
increase in average survival (T. brucei [3]): 2 fold
cure of T. brucei infection in mice (T. brucei [3]): failed to cure
weight loss of normal body weight (NBW) [4]: exceeding 10%
GI50 (bloodstream T. brucei; [7]): 7.4 ± 0.2 nM
GI50 (bloodstream T. brucei; [5]): < 10 nM
Selectivity Index HL GI50/Tbb GI50 (bloodstream T. brucei): 78
GI50 (T. b. rhodesiense): 13 ± 3 nM

CN(C)CCCn1c2ccc3c(c2c2c4c(ccc21)C(=O)CC4)CCC3=O [CBL0253]
GI50 (bloodstream T. brucei; [5]): 0.74 ± 0.27 nM

CC(=O)c1ccc2c(c1)c1c3c(ccc1n2CC[C@H]1CCCN1C)C(=O)CC3 [CBL0212]
GI50 (bloodstream T. brucei; [5]): 8.2 ± 0.23 nM

O=C1CCc2c1ccc1c2c2c3c(ccc2n1CCN1CCOCC1)C(=O)CC3 [CBL0207]
GI50 (bloodstream T. brucei; [5]): 17 ± 0.2 nM

CCCNCCCn1c2ccc3c(c2c2c4c(ccc21)C(=O)CC4)CCC3=O [Compound 3]
oral bioavailability [2]: orally bioavailable
GI50 (HeLa cells): 520 ± 40 nM
survival of infected mice compared to control untreated animals (T. brucei [3]): increased survival
reduction of parasitemia (T. brucei [3]): 100 fold
increase in average survival (T. brucei [3]): 2 fold
cure of T. brucei infection in mice (T. brucei [3]): failed to cure
weight loss of normal body weight (NBW) [4]: exceeding 10%
GI50 (bloodstream T. brucei; [7]): 2.2 ± 0.1 nM
GI50 (bloodstream T. brucei; [5]): < 10 nM
Selectivity Index HL GI50/Tbb GI50 (bloodstream T. brucei): 236
GI50 (T. b. rhodesiense): 3.6 ± 0.3 nM

CCOC(=O)N1CCC(n2c3ccc(C(C)=O)cc3c3cc(C(C)=O)ccc32)CC1 [CBL0149]
GI50 (bloodstream T. brucei; [5]): 5300 ± 1500 nM

CC(C)NCCn1c2ccc3c(c2c2c4c(ccc21)C(=O)CC4)CCC3=O [CBL0197]
GI50 (bloodstream T. brucei; [5]): 0.95 ± 0.05 nM
